Assay results taken from patent US20090075272A1, “Method to Identify CD40-Sensitive Cells Using Gene Expression” (priority 2007, published 2009).
Entries after “also recorded” stand apart in the source; their conditions may differ.

Experiments:
OCI-Ly7 cells [1] = experiment: Inhibition of CD40-mediated apoptosis by kinase inhibitors (viable cell count); format: cell-based, human; settings: 96 hours CD40 stimulation, U0126 10 μM, PD98059 50 μM, SB203580 10 μM added 30 minutes prior
Description: (§1) FIG. 10 is a bar graph showing the effect of ERK inhibition on CD40-mediated apoptosis. Cells were subjected to CD40 stimulation for 96 hours in the presence of the MEK1/2 inhibitors U0126 (10 μM) or PD98059 (50 μM), or the p38 inhibitor SB203580 (10 μM). Cell viability was quantitated by staining nonpermeabilized cells with propidium iodide, and counting the number of unstained (live) cells per unit volume using a Becton-Dickinson FACScan flow cytometer set to count for 30 seconds. The number of viable cells in anti-CD40-treated samples was expressed as a percentage of the number of viable cells incubated in secondary antibody only. Results from three experiments of four replicates each are shown. Error bars represent standard deviations. […] Constitutive ERK phosphorylation is correlated with CD40-mediated cell death.
(§2) Cells were resuspended at 1×10^5 cells/mL in RPMI 1640 medium supplemented as described above. Anti-CD40 antibody G28.5 and secondary crosslinking antibody HB58 were added to a final concentration of 10 μg/mL each, and the cells were incubated at 37° C. At 24 hour intervals aliquots of cells were harvested by centrifugation, washed once in phosphate buffered saline, and resuspended in FACS buffer. Non-permeabilized cells were stained by addition of 1 μg/mL propidium iodide, and the density of viable cells was determined using a FACScan flow cytometer and CellQuest software (Becton Dickinson, Mississauga, ON, Canada) set to count for a fixed 30-second time interval. To determine the fraction of cells that had undergone apoptosis, total intracellular DNA content was measured by propidium iodide staining of ethanol-permeabilized cells as previously described (16). Expression of CD40 on the cell surface was confirmed by staining non-permeabilized cells with a phycoerythrin-linked anti-CD40 antibody (clone 5C3, Becton-Dickinson) as per the manufacturer's directions, followed by flow cytometry.

Su-DHL4 cells [2] = experiment: as above; format: cell-based, human; settings: 96 hours CD40 stimulation, U0126 10 μM, PD98059 50 μM, SB203580 10 μM added 30 minutes prior
Description: as §1, §2

OCI-Ly7 cells [3] = experiment: Growth inhibition by kinase inhibitors (MTT assay); format: cell-based, human; settings: 96 hours; inhibitor 10^−4 to 10^−8 M
From the text: (§3) Error bars indicate standard deviations.

Su-DHL4 cells [4] = experiment: Growth inhibition by kinase inhibitors (MTT assay); format: cell-based, human; settings: 96 hours; inhibitor 10^−4 to 10^−8 M
From the text: as §3

[5] = system: CD40-sensitive and CD40-resistant DLCBL lines (OCI-Ly1, OCI-Ly7, OCI-Ly8, Su-DHL4); settings: 96 hours; inhibitor 10^−4 to 10^−8 M
Description: Sensitivity of the cell lines to inhibition of LCK and ERK activity was tested by addition of the src family kinase inhibitor PP1 or the MEK1/2 inhibitor U0126. Cells were incubated for 96 hours in inhibitor concentrations ranging from 10^−4 to 10^−8 M, and viability was assessed by MTT [3-(4,5-dimethylthiazol-2-yl)-2,5-diphenyltetrazolium bromide] assay. Viability is expressed as a percentage of the absorbance at 570 nm as compared to untreated samples. Results of two experiments with quadruplicate samples each were combined. Error bars indicate standard deviations.
The src family kinase inhibitor PP1 and the MEK inhibitor U0126 were purchased from Biomol (Plymouth Meeting, Pa., USA), and from Cell Signaling Technology (Beverly, Mass., USA) respectively. Kinase inhibition assays were performed using cells seeded at a density of 5×10^4 per mL in 96-well plates, to which kinase inhibitors were added to final concentrations of 10^−4 to 10^−8 M. The treated cells were incubated at 37° C. for 96 hours and cell viability was quantitated by MTT assay as previously described (17).

[6] = system: phosphorylated ERK in Su-DHL4 cells; settings: 10 μM, 48 hours
Description: Cells were permeabilized in Cytofix/Cytoperm (Becton-Dickinson) for 20 minutes, and stained with anti-phospho-ERK antibody (Cell Signaling Technology #9101) and FITC-conjugated anti-rabbit secondary antibody (Cedarlane Laboratories, Hornby, ON, CA) following the manufacturers' instructions. The stained cells were analyzed by flow cytometry with a FACScan flow cytometer and CellQuest software.
This hypothesis was tested using pharmacologic inhibitors of MEK. Su-DHL4 cells were incubated in the presence of 10 μM U0126 for 48 hours, permeabilized and stained with an anti-phospho-ERK antibody.

Su-DHL4 cells [7] = experiment: Cell death after treatment with calcium ionophore; format: cell-based, human

## COc1cccc(-c2cc(=O)c3ccccc3o2)c1N [PD98059]
OCI-Ly7 cells [1]
  CD40-mediated cell death (viable cells in anti-CD40-treated samples vs secondary antibody only): prevented CD40-mediated reduction in viability
OCI-Ly7 cells [1]; listed as PD98058
  CD40-mediated cell death (viable cells in anti-CD40-treated samples vs secondary antibody only): reduced CD40-mediated cell death
Su-DHL4 cells [2]
  CD40-mediated cell death (viable cells in anti-CD40-treated samples vs secondary antibody only): prevented CD40-mediated reduction in viability
Su-DHL4 cells [2]; listed as PD98058
  CD40-mediated cell death (viable cells in anti-CD40-treated samples vs secondary antibody only): reduced CD40-mediated cell death

## Cc1ccc(-c2nn(C(C)(C)C)c3ncnc(N)c23)cc1 [PP1]
OCI-Ly7 cells [3]
  growth (viability by MTT assay): more effective at reducing proliferation; also recorded: inhibited by PP1 more efficiently than growth of CD40-resistant OCI-Ly1 and OCI-Ly8 cells
Su-DHL4 cells [4]
  growth (viability by MTT assay): more effective at reducing proliferation; also recorded: inhibited by PP1 more efficiently than growth of CD40-resistant OCI-Ly1 and OCI-Ly8 cells

## C[S+]([O-])c1ccc(-c2nc(-c3ccncc3)c(-c3ccc(F)cc3)[nH]2)cc1 (stereo not shown) [SB203580]
OCI-Ly7 cells [1]
  CD40-mediated cell death (viable cells in anti-CD40-treated samples vs secondary antibody only): reduced by CD40 ligation
Su-DHL4 cells [2]
  CD40-mediated cell death (viable cells in anti-CD40-treated samples vs secondary antibody only): reduced by CD40 ligation

## N#CC(=C(/N)Sc1ccccc1N)/C(C#N)=C(\N)Sc1ccccc1N [U0126]
[5]
  differential effects on growth of CD40-sensitive and CD40-resistant DLCBL lines: did not show differential effects
OCI-Ly7 cells [1]
  CD40-mediated cell death (viable cells in anti-CD40-treated samples vs secondary antibody only): prevented CD40-mediated reduction in viability; also recorded: reduced CD40-mediated cell death
Su-DHL4 cells [2]
  CD40-mediated cell death (viable cells in anti-CD40-treated samples vs secondary antibody only): prevented CD40-mediated reduction in viability; also recorded: reduced CD40-mediated cell death
[6]
  phosphorylation of ERK: reduced

## C[C@H](CCC(=O)O)C[C@H](C)C[C@H](C)C(=O)/C=C(\O)[C@H](C)C[C@H](C)C/C=C/[C@@H](C)[C@@H](O)[C@@H](C)[C@@H](O)C[C@@H]1CC[C@@](C)([C@H]2CC[C@@](C)([C@@H](C)O)O2)O1 [ionomycin]
Su-DHL4 cells [7]
  cell death: induced cell death
